These results are taken from PubChem BioAssay AID449750 (Broad Institute, 2010).

Calls of active or inactive are those of the source. How the calls were made is not given here.

The nature of the assay: non-covalent RecA intein splicing inhibitors, dose response, biochemical, cell-free, fluorescence, secondary screen (AID 449750).
The term AC50 denotes the concentration at which the activity in the assay is half-maximal. For the compound `Nc1nc(-c2ccco2)nn1C(=O)c1ccc(Cl)cc1`, the AC50 is > 38 µM (inactive).

`Cc1nc2ccccc2c2c1C(=O)N(C)C2=O`: the AC50 is > 38 µM (inactive).

Take `COC(=O)c1sc(-c2ccc(Cl)cc2)cc1NC(=O)/C=C/C(=O)O`: the AC50 is 9.69 µM.

In the case of `COc1ccc(-n2c(C)cc(C(=O)CCl)c2C)cc1`, the AC50 was 13.6 µM.

For the compound `COc1cc(C(=O)CSc2nnc(-c3ccc(O)cc3)n2CC2CCCO2)ccc1NC(C)=O` (configuration not stated), the AC50 is > 38 µM (inactive).

With `O=C1C(Nc2cccc(O)c2)=C(N2CCCCC2)C(=O)c2ccccc21`, the AC50 is 2.93 µM.

For the compound `Cc1ccccc1N1C(=O)c2ccccc2C1Nc1cccnc1` (configuration not stated), the AC50 was > 38 µM (inactive).

On to `COc1ccccc1Nc1cc2cc(Br)ccc2c(=O)[nH]1`, for which the AC50 is 6.07 µM.

Take `CCCCCCCCCCCCCCCC[N+](C)(C)C`: the AC50 was 12.1 µM.

For the compound `O=C(CCl)NC(=O)NC12CC3CC(CC(C3)C1)C2`, the AC50 is 13.3 µM.

For `COC(=O)CCS(=O)(=O)c1nc(-c2ccccc2)cc(C(F)(F)F)n1`, the AC50 is > 38 µM (inactive).

For `CCOc1ccccc1Oc1coc2cc(OC(=O)c3ccco3)ccc2c1=O`, the AC50 is > 38 µM (inactive).

On to `Cc1ccc(NC2=C/C(=N\S(=O)(=O)c3cccs3)c3ccccc3C2=O)c(C)c1`, for which the AC50 was 0.304 µM.

Regarding `CC1=NN(c2ccccc2)C(=O)/C1=C\c1cc(C)n(-c2cccnc2)c1C`, the AC50 is > 38 µM (inactive).

As to `Cc1[nH][nH]c(=O)c1C(c1ccc([N+](=O)[O-])cc1)c1c(C)[nH][nH]c1=O`, the AC50 was 25.4 µM.

For `COc1ccc2noc3c2c1C(=O)c1ccccc1-3`, the AC50 is 24.8 µM.

For `Oc1ccc(N=Cc2sc3ccccc3c2Cl)cc1`, the AC50 was > 38 µM (inactive).

As to `CCc1cc(C(=O)c2ccc(C)cc2)c(NC(=O)CCl)s1`, the AC50 is 2.62 µM.

`O=c1[nH]c(Nc2ccccc2Cl)cc2ccccc12`: the AC50 was 15.5 µM.

Consider `O=c1cc(-c2ccc(Cl)cc2)[nH][nH]1`, for which the AC50 was 14.2 µM.

Regarding `COc1cccc(C(c2c(C)[nH]n(-c3ccccc3)c2=O)c2c(C)[nH]n(-c3ccccc3)c2=O)c1O`, the AC50 is 2.35 µM.

As for `Cc1ccc(N2C(=O)NC(=O)/C(=C/c3ccc(OC(=O)c4cccs4)cc3)C2=O)cc1`, the AC50 was 5.9 µM.

For `CCCCCOP(=O)(OCCCCC)C1(NS(=O)(=O)c2ccccc2)C=CC(=O)c2ccccc21` (configuration not stated), the AC50 is 6.5 µM.

Consider `CCN(CC)CCOc1ccc(/C(=C(\Cl)c2ccccc2)c2ccccc2)cc1`, for which the AC50 was 9.57 µM.

Regarding `CC1(C)N=C(SCC(=O)Nc2ccc(Cl)cc2)C(c2ccc(Cl)cc2)=N1`, the AC50 was 29.8 µM.

On to `Nc1ccc2nc(Cc3ccccc3)[nH]c2c1`, for which the AC50 is > 38 µM (inactive).

Turning to `CCCC(=O)OCCNc1cc(Sc2nccn2C)c2nonc2c1[N+](=O)[O-]`, the AC50 is > 38 µM (inactive).

For `CCOC(=O)N1C(=O)[C@](c2ccc(Cl)cc2)(C(C)C)N1C(=O)OCC`, the AC50 was 1.75 µM.

As to `O=C(O)CC1OCC=C2CN3CCC45C6=CC(=O)C(=O)C([N+](=O)[O-])=C6NC4C1C2CC35` (configuration not stated), the AC50 was 32.5 µM.

For the compound `O=C(CCS(=O)NCc1ccccc1)NCc1ccccc1` (configuration not stated), the AC50 was > 38 µM (inactive).

For the compound `O=C1C=C(Nc2ccccc2)c2ccccc2C1=O`, the AC50 is 5.18 µM.

`O=C1C(Cl)=C(N2CCC(C(=O)O)CC2)C(=O)c2ccccc21`: the AC50 was 1.41 µM.

For `COc1cc(/C=N\NC(=O)c2ccccc2F)ccc1Oc1ccc([N+](=O)[O-])cn1`, the AC50 was > 38 µM (inactive).

For `Cc1cccc(NC2=C(Cl)C(=O)OC2OC(=O)c2ccco2)c1` (configuration not stated), the AC50 is > 38 µM (inactive).

On to `COc1ccccc1-c1cc(C(F)(F)F)nc(S(=O)(=O)CCCC(=O)N2CCCCC2C)n1` (configuration not stated), for which the AC50 was > 38 µM (inactive).

Take `O=C1C=C(N2CCOCC2)c2ccccc2C1=O`: the AC50 was 4.51 µM.

Consider `CC(NC(=O)/C(C#N)=C/c1ccc([N+](=O)[O-])o1)c1ccccc1` (configuration not stated), for which the AC50 is > 38 µM (inactive).

Regarding `O=C(O)c1ccc(NC2=C(Cl)C(=O)c3ccccc3C2=O)cc1`, the AC50 is 3.91 µM.

Turning to `CC(=O)NC1C(=O)N(CCN2CCOCC2)c2ccc(Cl)cc21` (configuration not stated), the AC50 is 34.1 µM.

On to `Cc1oc2c(c1C(=O)NCc1cccnc1)C(=O)c1ccccc1C2=O`, for which the AC50 was 1.4 µM.

For the compound `O=[N+]([O-])c1cccc2c([As](=O)(O)O)cccc12`, the AC50 is > 38 µM (inactive).

As for `Cc1cc(C(=O)c2ccc(C(C)(C)C)cc2)c(NC(=O)CCl)s1`, the AC50 was 9.8 µM.

Take `CCOC(=O)C(C(=O)OCC)c1cc(Br)c2noc3c2c1C(=O)c1ccccc1-3`: the AC50 was 8.74 µM.

Regarding `O=C(O)c1ccc(NC2=C(n3nnc4ccccc43)C(=O)c3ccccc3C2=O)cc1`, the AC50 was 3.84 µM.

Take `CCOC(=O)C1CCN(C(=O)c2c(C)oc3c2C(=O)c2ccccc2C3=O)CC1`: the half-maximal activity concentration (AC50) was 21 µM.

For the compound `COc1ccc2ccc3c(c2c1)N=C[C@]1(O3)N(C)c2ccccc2C1(C)C`, the AC50 is > 38 µM (inactive).

As to `Oc1ccc(/C=N/Nc2ccc(C(F)(F)F)cn2)c(O)c1`, the AC50 was > 38 µM (inactive).

Regarding `COc1cccc(NC(=S)/C(=C(\[O-])c2ccc(OC(F)F)cc2)[n+]2ccccc2)c1`, the AC50 is 28.1 µM.

Consider `O=C1C(Cl)=C(NCC2CCCO2)C(=O)N1c1ccccc1` (configuration not stated), for which the AC50 is > 38 µM (inactive).

Take `CCCn1nc([N+](=O)[O-])c(C(C#N)c2nc3ccccc3s2)c(Cl)c1=O` (configuration not stated): the AC50 is 23.4 µM.

Take `N#CC1=C(N)Oc2n[nH]c(-c3ccccc3)c2C1c1cccc(OC(=O)N2CCOCC2)c1` (configuration not stated): the AC50 was 32.7 µM.

For the compound `COC(=O)c1ccccc1-c1ccc(C(c2c(C)[nH][nH]c2=O)c2c(C)[nH][nH]c2=O)o1`, the AC50 is 3.62 µM.

For `Cc1c([N+](=O)[O-])cnc(Sc2ccccc2)c1[N+](=O)[O-]`, the AC50 is 1.23 µM.

For the compound `O=C(N/N=C1\C/C(=N\NC(=O)c2ccncc2)c2ccccc21)c1ccncc1`, the AC50 was 17.3 µM.

Regarding `Cc1ccc(C[n+]2c(-c3ccc(C)cc3)cc(-c3ccc(C)cc3)cc2-c2ccc(C)cc2)cc1`, the AC50 is 6.62 µM.

For `COc1cc(C=C(c2nc3ccccc3s2)c2nc3ccccc3s2)ccc1O`, the AC50 is 3.26 µM.

Take `CCCCCc1cc(=O)oc2c(C(CCN3CCCC(C)C3)c3ccc4c(c3)OCO4)c(OC)cc(OC)c12` (configuration not stated): the AC50 was 10.5 µM.

In the case of `O=C1C(Br)=Cc2cccc3cccc1c23`, the AC50 was > 38 µM (inactive).

For `CC(C)CCn1c(Sc2nc3ccccc3o2)nc2c1c(=O)[nH]c(=O)n2C`, the AC50 was 5.08 µM.

On to `CCOC(=O)c1c(NC(=O)/C=C/C(=O)O)sc(C)c1-c1ccc(C)c(C)c1`, for which the AC50 is 10.7 µM.

Regarding `CN1C(=O)/C(=C/c2ccc(-c3ccccc3[N+](=O)[O-])o2)SC1=Nc1ccc(Cl)c(C(=O)O)c1`, the AC50 is 17.1 µM.

For the compound `COc1cc(C(c2c(C)[nH][nH]c2=O)c2c(C)[nH][nH]c2=O)cc(OC)c1OC`, the AC50 is 11.8 µM.

Regarding `CC1(C)CC2(C)OC(=N)C1(C#N)C2(C#N)C#N` (configuration not stated), the AC50 is > 38 µM (inactive).

`CCOC(=O)CSc1nnc(NCC(=O)OC(C)C)c(=O)[nH]1`: the AC50 was > 38 µM (inactive).

For the compound `CCCCOc1ccc(C2C3CN(C(=O)OCC)CC=C3C(C#N)=C(N)C2(C#N)C#N)cc1OC` (configuration not stated), the AC50 is > 38 µM (inactive).

Consider `Cc1[nH][nH]c(=O)c1C(c1cc([N+](=O)[O-])ccc1O)c1c(C)[nH][nH]c1=O`, for which the AC50 is 14.6 µM.

As for `CC(C)CNC(=O)c1c(N)n(Cc2ccc3c(c2)OCO3)c2nc3ccccc3nc12`, the AC50 is 5.59 µM.

Take `CC(C)(C)c1[nH]nc2c1C(c1ccoc1)C(C#N)=C(N)O2` (configuration not stated): the AC50 was > 38 µM (inactive).

As to `Cc1noc2ncnc(Sc3ccc(Br)cc3)c12`, the AC50 was 13.5 µM.

Turning to `c1cncc(CNc2ncnc3sc4c(c23)CCCC4)c1`, the AC50 is > 38 µM (inactive).

Turning to `O=C1c2ccccc2-c2c1nc1c([n+]2[O-])CCCC1`, the AC50 was 31.3 µM.

For the compound `O=C(C(=C1N(Cc2ccc(Cl)nc2)CCN1Cc1ccc(Cl)nc1)[N+](=O)[O-])C(Cl)Cl`, the AC50 was > 38 µM (inactive).

As for `O=C(c1ccco1)c1coc2c1cc(O)c1ccccc12`, the AC50 was 26.2 µM.

Take `Cc1ccc(Sc2c([N+](=O)[O-])ncn2C)cc1`: the AC50 was > 38 µM (inactive).

For `Nc1cc(N)c(OCC(F)(F)F)cc1OCC(F)(F)F`, the AC50 is 9.65 µM.

On to `Cc1nc2ccccc2c2c1C(=O)N(Cc1cccnc1)C2=O`, for which the AC50 was > 38 µM (inactive).

On to `Cc1[nH]n(-c2ccccc2)c(=O)c1C(C[N+](=O)[O-])c1ccc(Br)cc1` (configuration not stated), for which the AC50 was 11.1 µM.

Consider `Cc1ccc(NC2=C(NC(=O)c3ccccc3)C(=O)c3ccccc3C2=O)cc1Cl`, for which the half-maximal activity concentration (AC50) was 7.45 µM.

For the compound `Cc1[nH]nc2c1C(c1cccc(OC(=O)N3CCOCC3)c1)C(C#N)=C(N)O2` (configuration not stated), the AC50 was > 38 µM (inactive).

Take `Cc1cc[n+](C2=C([O-])c3ccccc3C(=O)/C2=N\S(=O)(=O)c2cccs2)cc1C`: the AC50 is 4.29 µM.

In the case of `CCCCc1ccc(NC(=O)CSCc2cc(=O)[nH][nH]2)cc1`, the AC50 was 27.1 µM.

In the case of `Cc1[nH]n(C(N)=S)c(=O)c1C(c1ccccc1)C(C#N)C#N` (configuration not stated), the AC50 is > 38 µM (inactive).

Take `O=C1C(Cl)=C(N2CCCCC2)C(=O)C(Cl)=C1c1cnc(N2CCCCC2)s1`: the AC50 is > 38 µM (inactive).

Consider `Cc1ccc(NC(=O)CSc2ncnc3ccccc23)cc1S(=O)(=O)N1CCCCCC1`, for which the AC50 is 30.2 µM.

Consider `CCc1ccc2c(c1)C(NC(C)=O)C(=O)N2CCN1CCOCC1` (configuration not stated), for which the AC50 is 37 µM.

For `Cc1[nH]nc2c1C(c1ccc(OC(=O)c3ccco3)cc1)C(C#N)=C(N)O2` (configuration not stated), the AC50 is > 38 µM (inactive).

On to `CC1=NNC(=O)/C1=C\c1cn(-c2ccccc2)nc1-c1ccc(F)cc1`, for which the AC50 is 12 µM.

In the case of `Cc1ccc2c(c1)c1c(n2CC(O)CN2CCCCCC2)CCCC1` (configuration not stated), the AC50 was > 38 µM (inactive).

Regarding `CC(=O)N(C1=C(Cl)C(=O)c2ccccc2C1=O)C1CCCCC1`, the AC50 is 2.79 µM.

In the case of `C=CCOc1ccccc1CN(C(=O)CCl)c1ccc2c(c1)OCO2`, the AC50 is 1.28 µM.

Consider `CS/C(=C/[N+](=O)[O-])Nc1cccc2c1C(C)CC2(C)C` (configuration not stated), for which the AC50 was > 38 µM (inactive).

Turning to `Cc1ccc(SCc2[nH]nc3c2C(c2ccco2)C(C#N)=C(N)O3)cc1` (configuration not stated), the AC50 was 14.8 µM.
